Results on 24 compounds are retold here after patent publication US4086417A, “Cytidine nucleotide derivatives” (Asahi Kasei Kogyo Kabushiki Kaisha, priority 1974, dated 1978).

Values after ≈ are worked out from the molar mass of the structure shown. Where a name gives a salt, the structure may show the parent alone. Read-outs that look alike come from different tables or passages of the source.

Data set [1] in a line: Solubility test: solubility in water. It counts as physicochemical. From the text:
In the aforesaid examples, the products were obtained as white solids.
In Table 1, -Ara-C means "-1-β-D-arabinofuranosylcytosine" and -5'-Pna and -5'-PNa2 mean "-1-β-D-arabinofuranosylcytosine-5'-phosphate monosodium salt" and "-1-β-D-arabinofuranosylcytosine-5'-phosphate disodium salt," respectively.

Data set [2] deals with leukemia L-1210. Briefly: Antitumour activity in mice inoculated intraperitoneally with leukemia L-1210 (survival, T/C). It counts as in vivo, CDF-1 male mice. As to conditions: Mus musculus, L1210, ip, directly after injection of L-1210, after 2 days and after 6 days; for response vs control in vivo at 100 mg/kg: 100 mg/kg i.p.; for response vs control in vivo at 200 mg/kg: 200 mg/kg i.p.; for response vs control in vivo at 400 mg/kg: 400 mg/kg i.p. As for the experimental part:
The antitumour activity for mice of the test material was evaluated by means of survival rate comparison, T/C (%), that is, 100 times the mean survival period of the groups injected with the test material divided by the mean survival period of the comparison groups which were not injected with the test material.
Further, for comparison, the following materials were also subjected to the same biological test: […]

Turning to `CCCCCCCC/C=C\CCCCCCCC(=O)Nc1ccn([C@@H]2O[C@H](COP(=O)(O)O)[C@@H](O)[C@@H]2O)c(=O)n1` [N^4 -Oleoyl-5'-PNa, N^4-oleoyl-1-β-D-arabinofuranosylcytosine-5'-phosphate monosodium], the Solubility in water in data set [1] was more than 50 mg/mL. Moreover, in data set [2], the response vs control in vivo at 100 mg/kg came out at 270%, the response vs control in vivo at 200 mg/kg turned out to be 156% and the response vs control in vivo at 400 mg/kg was 103%.
Compound `CCCCCCCCCCCCCCCC(=O)Nc1ccn([C@@H]2O[C@H](COP(=O)(O)O)[C@@H](O)[C@@H]2O)c(=O)n1` [N^4 -Palmitoyl-5'-PNa2] displayed a Solubility in water in data set [1] of more than 150 mg/mL.
On the same count and under the same terms, the result for `CCCCCCCCCCCCCCCCC(=O)Nc1ccn([C@@H]2O[C@H](COP(=O)(O)O)[C@@H](O)[C@@H]2O)c(=O)n1` [N^4 -Margaroyl-5'-PNa2] reads more than 50 mg/mL; that for `CCCCCCCC/C=C\CCCCCCCC(=O)Nc1ccn([C@@H]2O[C@H](COP(=O)(O)O)[C@@H](O)[C@@H]2O)c(=O)n1` [N^4 -Oleoyl-5'-PNa2], more than 250 mg/mL; that for `O=C(Nc1ccn([C@@H]2O[C@H](COP(=O)(O)O)[C@@H](O)[C@@H]2O)c(=O)n1)C12CC3CC(CC(C3)C1)C2` [N^4 -Adamantoyl-5'-PNa2], more than 10 mg/mL.
Regarding `O=C(Nc1ccn([C@@H]2O[C@H](COP(=O)(O)O)[C@@H](O)[C@@H]2O)c(=O)n1)C12CC3CC(CC(C3)C1)C2` [N^4 -Adamantoyl-5'-PNa, N^4-adamantoyl-1-β-D-arabinofuranosylcytosine-5'-phosphate monosodium], the Solubility in water in data set [1] worked out at 2 mg/mL.
Same read-out and setting: the result for `CCCCCCCCCCCCCCCCCCCCCCCCCCCC(=O)Nc1ccn([C@@H]2O[C@H](COP(=O)(O)O)[C@@H](O)[C@@H]2O)c(=O)n1` [N^4 -Montanoyl-5'-PNa2] reads more than 5 mg/mL.
Take `CC(=O)Nc1ccn([C@@H]2O[C@H](COP(=O)(O)O)[C@@H](O)[C@@H]2O)c(=O)n1` [N^4 -Acetyl-5'-PNa]: in data set [2], the response vs control in vivo at 100 mg/kg amounted to 101%, the response vs control in vivo at 200 mg/kg was found to be 99% and the response vs control in vivo at 400 mg/kg is 99%.
As for `CCCCCCCCCCCCCCCCCC(=O)Nc1ccn([C@@H]2O[C@H](CO)[C@@H](OP(=O)(O)O)[C@@H]2OP(=O)(O)O)c(=O)n1` [N^4-stearoyl-Ara-C-2',3'-(PNa)2], in data set [2], the response vs control in vivo at 100 mg/kg came out at 184%, the response vs control in vivo at 200 mg/kg amounted to 119% and the response vs control in vivo at 400 mg/kg stood at 103%.
Consider `CCCC(=O)Nc1ccn([C@@H]2O[C@H](CO)[C@@H](O)[C@@H]2O)c(=O)n1` [N^4 -Butyryl-Ara-C], for which, in data set [2], the response vs control in vivo at 100 mg/kg stood at 131%, the response vs control in vivo at 200 mg/kg stood at 131% and the response vs control in vivo at 400 mg/kg turned out to be 139%.
In data set [2], `CCCC(=O)Nc1ccn([C@@H]2O[C@H](COP(=O)(O)O)[C@@H](O)[C@@H]2O)c(=O)n1` [N^4 -Butyryl-5'-PNa] gave a response vs control in vivo at 100 mg/kg of 105%, a response vs control in vivo at 200 mg/kg of 102% and a response vs control in vivo at 400 mg/kg of 100%.
As to `CCCCCCCCCC(=O)Nc1ccn([C@@H]2O[C@H](COP(=O)(O)O)[C@@H](O)[C@@H]2O)c(=O)n1` [N^4 -Capryl-5'-PNa], in data set [2], the response vs control in vivo at 100 mg/kg is 103%, the response vs control in vivo at 200 mg/kg amounted to 102% and the response vs control in vivo at 400 mg/kg worked out at 98%.
For `CCCCC/C=C\C/C=C\CCCCCCCC(=O)Nc1ccn([C@@H]2O[C@H](CO)[C@@H](O)[C@@H]2O)c(=O)n1` [N^4 -Linoleoyl-Ara-C], in data set [2], the response vs control in vivo at 100 mg/kg came out at 268%, the response vs control in vivo at 200 mg/kg came to 140% and the response vs control in vivo at 400 mg/kg amounted to 112%.
For the compound `O=C(Nc1ccn([C@@H]2O[C@H](CO)[C@@H](O)[C@@H]2O)c(=O)n1)C12CC3CC(CC(C3)C1)C2` [N^4 -Adamantoyl-Ara-C], the concentration in solution in data set [1] (solubility) was 10 µg/mL (≈ 0.0247 mM).
On to `CCCCCCCCCCCCCCCCCCCCCCCCCCCC(=O)Nc1ccn([C@@H]2O[C@H](COP(=O)(O)O)[C@@H](O)[C@@H]2O)c(=O)n1` [N^4 -Montanoyl-5'-PNa, N^4-montanoyl-1-β-D-arabinofuranosylcytosine-5'-phosphate monosodium], for which the Solubility in water in data set [1] came to 1 mg/mL.
For the compound `CCCCC(=O)Nc1ccn([C@@H]2O[C@H](CO)[C@@H](O)[C@@H]2O)c(=O)n1` [N^4 -Valeryl-Ara-C], in data set [2], the response vs control in vivo at 100 mg/kg came to 133%, the response vs control in vivo at 200 mg/kg came to 171% and the response vs control in vivo at 400 mg/kg was 191%.
The corresponding values for `CCCCCCCCCCCCCCCCCC(=O)Nc1ccn([C@@H]2O[C@H](CO)[C@@H](OP(=O)(O)O)[C@@H]2O)c(=O)n1` [N^4-stearoyl-Ara-C-3'-PNa] are 286%, 219% and 112%.
As to `CCCCCCCCCCCCCCCCCCCCCCCCCCCC(=O)Nc1ccn([C@@H]2O[C@H](CO)[C@@H](O)[C@@H]2O)c(=O)n1` [N^4 -Montanoyl-Ara-C], the solubility – broadly, the dissolved amount per volume that the medium holds – in data set [1] was less than 10 µg/mL.
In data set [2], `CCCCC/C=C\C/C=C\CCCCCCCC(=O)Nc1ccn([C@@H]2O[C@H](COP(=O)(O)O)[C@@H](O)[C@@H]2O)c(=O)n1` [N^4 -Linoleoyl-5'-PNa] came in with a response vs control in vivo at 100 mg/kg of 275%, a response vs control in vivo at 200 mg/kg of 145% and a response vs control in vivo at 400 mg/kg of 120%.
The corresponding values for `CCCCCCCCCCCCCCC(=O)Nc1ccn([C@@H]2O[C@H](COP(=O)(O)O)[C@@H](O)[C@@H]2O)c(=O)n1` [N^4 -Pentadecanoyl-5'-PNa] are more than 302%, more than 287% and 86%.
The matching figures for `CCCCC/C=C\C/C=C\C/C=C\C/C=C\CCCC(=O)Nc1ccn([C@@H]2O[C@H](COP(=O)(O)O)[C@@H](O)[C@@H]2O)c(=O)n1` [N^4 -Arachidonoyl-5'-PNa, N^4-arachidonoyl-1-β-D-arabinofuranosylcytosine-5'-phosphate monosodium]: 274%, 148% and 115%.
Consider `CCCCCCCCCCCCCCCCCC(=O)Nc1ccn([C@@H]2O[C@H](COP(=O)(O)O)[C@@H](O)[C@@H]2O)c(=O)n1` [N^4 -Stearoyl-5'-PNa2, N^4-stearoyl-1-β-D-arabinofuranosylcytosine-5'-phosphate disodium salt], for which, in data set [1] (disodium salt), the Solubility in water was more than 50 mg/mL.
In data set [2], `CCCCCC(=O)Nc1ccn([C@@H]2O[C@H](COP(=O)(O)O)[C@@H](O)[C@@H]2O)c(=O)n1` [N^4 -Caproyl-5'-PNa] showed a response vs control in vivo at 100 mg/kg of 103%, a response vs control in vivo at 200 mg/kg of 105% and a response vs control in vivo at 400 mg/kg of 101%.
The matching figures for `CCCCCCCCCCCCCCCCCCCC(=O)Nc1ccn([C@@H]2O[C@H](COP(=O)(O)O)[C@@H](O)[C@@H]2O)c(=O)n1` [N^4 -Arachidoyl-5'-PNa, N^4-arachidoyl-1-β-D-arabinofuranosylcytosine-5'-phosphate monosodium]: 320%, 130% and 106%.
